Source: ChEMBL document CHEMBL3272224, “Synthesis and hypotensive activity of N-alkyl-N"-cyano-N'-pyridylguanidines” (J Med Chem, 1978)

Columns and labels:
[1] = Toxicity in po dosed mouse assessed as mortality after 7 days; conditions: in vivo
Rattus norvegicus = experiment: Hypotensive activity in po dosed spontaneously hypertensive Wistar-Okamoto rat assessed as dose required to cause 30 mmHg fall of blood pressure administered for 5 days; format: functional; conditions: 120 h, read-out: MED

SMILES	LD50 at 168 h [1] [mg/kg]	minimal effective dose (Rattus norvegicus) [mg/kg]
CC(/N=C(\NC#N)Nc1ccncc1)c1ccccc1 (stereo unspecified)	600	10
CC(C)/N=C(\NC#N)Nc1cccnc1	> 1000	2.5
CC(C)CCCC(C)N/C(=N\C#N)Nc1ccncc1 (stereo unspecified)	> 1000	50
CCC(C)(C)N/C(=N\C#N)NCc1ccncc1.O	> 1000	20
N#CN/C(=N\C1CCCCCCC1)Nc1ccncc1	600	> 20
C=C(C)C/N=C(\NC#N)Nc1cccnc1	1000	20
CN1CCN(/C(=N/C#N)NC(C)(C)C)CC1	> 1000	> 50
N#CN/C(=N\C(C1CC1)C1CC1)Nc1ccncc1	600	10
